Measurements: US20250099478A1, “PLASMA KALLIKREIN INHIBITORS” (Merck Sharp & Dohme LLC, priority 2022, published 2025)

Tests used:
[1] = target: T1, human factor XIa (Homo sapiens, UniProt P03951); assay: Factor XIa Assay; format: biochemical; conditions: human factor XIa 0.04 nM, substrate GPR-AFC, 25° C.
T1 construct: with human (0.04 nM) factor XIa
Description: The effectiveness of a compound of the present invention as an inhibitor of Coagulation factor XIa can be determined using a relevant purified serine protease, and an appropriate synthetic substrate. The rate of hydrolysis of the chromogenic or fluorogenic substrate by the relevant serine protease was measured both in the absence and presence of compounds of the present invention. Assays were conducted at rt or at 37° C. […] A decrease in the rate of fluorescence change in the presence of inhibitor is indicative of enzyme inhibition. Such methods are known to one skilled in the art. The results of this assay are expressed as the half-maximal inhibitory concentrations (IC50), or the inhibitory constant, Ki.
Compounds were pre-incubated for 30 min at 25° C. with human (0.04 nM) factor XIa in 50 mM HEPES buffer with 150 mM sodium chloride, 5 mM calcium chloride, 0.1% PEG 8000, pH 7.4. factor XIa enzymatic activity was determined by addition of the substrate glycine-proline-arginine-7-amido-4-trifluoromethylcoumarin (GPR-AFC) and measurement of the fluorescence at 400/505 nm after a 60 min incubation at 25° C. The % inhibition for each data point was calculated from the data and analyzed using the log (inhibitor) vs. response four parameters equation to determine the half-maximal inhibitory concentrations (IC50). The IC50 were converted to equilibrium inhibitory constants (Ki) using the Cheng-Prusoff equation.

[2] = target: T2, Human plasma kallikrein (Homo sapiens, UniProt P03952); assay: Plasma Kallikrein Assay; format: biochemical; conditions: purified Human plasma kallikrein 0.5 nM, substrate Acetyl-K-P-R-AFC; read-out: PKal IC50
T2 construct: yields a heavy chain (371 amino acids) and a light chain (248 amino acids); purchased Enzyme Research Laboratories
Summary of the method: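 Purified human plasma kallikrein (0.5 nM) hydrolysing fluorogenic Acetyl-K-P-R-AFC ([…]) in 50 mM HEPES pH 7.4, 150 mM NaCl, 5 mM CaCl2, 0.1% PEG 8000, at rt or 37 °C after enzyme–inhibitor equilibration. IC50 from four-parameter logistic fit; Ki via Cheng–Prusoff.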

T2 sequence (P03952 391-638 limits assumed): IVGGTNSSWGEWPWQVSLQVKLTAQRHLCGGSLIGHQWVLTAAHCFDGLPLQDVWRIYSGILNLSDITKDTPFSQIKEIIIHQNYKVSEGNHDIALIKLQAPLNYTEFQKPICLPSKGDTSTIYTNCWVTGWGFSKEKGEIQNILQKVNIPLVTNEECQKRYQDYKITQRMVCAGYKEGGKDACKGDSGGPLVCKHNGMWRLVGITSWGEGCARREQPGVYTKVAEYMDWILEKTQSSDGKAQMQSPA
T2 sequence (P03952 20-390 partner limits assumed): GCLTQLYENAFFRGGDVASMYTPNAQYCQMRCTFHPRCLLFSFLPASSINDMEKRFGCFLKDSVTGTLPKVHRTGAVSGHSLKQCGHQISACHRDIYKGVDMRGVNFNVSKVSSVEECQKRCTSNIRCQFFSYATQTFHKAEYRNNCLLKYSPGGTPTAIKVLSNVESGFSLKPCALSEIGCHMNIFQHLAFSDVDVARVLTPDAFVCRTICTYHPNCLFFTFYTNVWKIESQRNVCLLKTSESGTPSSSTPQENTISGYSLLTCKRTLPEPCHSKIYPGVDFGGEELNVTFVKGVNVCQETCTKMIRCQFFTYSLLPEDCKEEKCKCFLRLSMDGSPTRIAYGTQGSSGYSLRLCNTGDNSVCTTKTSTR
T1 sequence (P03951 388-625 limits assumed): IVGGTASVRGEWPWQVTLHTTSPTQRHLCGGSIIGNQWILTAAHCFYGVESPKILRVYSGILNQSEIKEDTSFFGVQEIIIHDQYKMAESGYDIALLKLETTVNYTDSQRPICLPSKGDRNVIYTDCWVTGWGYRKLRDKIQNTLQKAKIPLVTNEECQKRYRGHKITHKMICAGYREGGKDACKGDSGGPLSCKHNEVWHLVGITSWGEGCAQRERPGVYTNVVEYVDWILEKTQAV
T1 sequence (P03951 19-387 partner limits assumed): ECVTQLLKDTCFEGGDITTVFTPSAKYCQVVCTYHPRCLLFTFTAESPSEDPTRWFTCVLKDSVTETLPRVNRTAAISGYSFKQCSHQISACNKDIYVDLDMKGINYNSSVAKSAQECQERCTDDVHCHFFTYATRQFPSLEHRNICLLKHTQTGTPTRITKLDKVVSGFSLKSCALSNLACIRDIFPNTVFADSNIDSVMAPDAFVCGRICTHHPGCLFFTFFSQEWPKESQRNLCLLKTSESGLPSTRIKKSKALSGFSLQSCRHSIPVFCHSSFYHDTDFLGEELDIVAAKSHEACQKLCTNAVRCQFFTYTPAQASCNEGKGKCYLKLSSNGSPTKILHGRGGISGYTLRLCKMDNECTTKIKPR

Compound | IC50 [1] [nM] | IC50 [2] [nM]
O=C1Nc2ccc(Cl)c(F)c2[C@@]2(CCCN(C(=O)c3cnc(C(O)c4ccc(F)cc4)[nH]3)C2)O1 (single isomer, unassigned) [Example 78] | 3850 | 13.7
CC1(C)CN(C(=O)c2nnc(Cc3ccccc3)[nH]2)C[C@]2(C1)OC(=O)Nc1ccc(Cl)c(F)c12 [Example 89, (R)-1′-(5-Benzyl-4H-1,2,4-triazole-3-carbonyl)-6-chloro-5-fluoro-5′,5′-dimethylspiro[benzo[d][1,3]oxazine-4,3′-piperidin]-2(1H)-one] | 7200 | 14.9
O=C1Nc2ccc(Cl)c(F)c2[C@@]2(CCCN(C(=O)c3nnc(Cc4ccccc4)[nH]3)C2)O1 [Example 86, (R)-1′-(5-Benzyl-4H-1,2,4-triazole-3-carbonyl)-6-chloro-5-fluorospiro[benzo[d][1,3]oxazine-4,3′-piperidin]-2(1H)-one] | 6890 | 24.8
CCC(c1cccc(S(C)(=O)=O)c1)n1cc(C(=O)N2CCC[C@@]3(C2)OC(=O)Nc2ccc(Cl)c(F)c23)cn1 (single isomer, unassigned) [Example 30] | 4350 | 5.7
CCC(c1ccc(F)c(Cl)c1)c1nnc(C(=O)N2CCC[C@@]3(C2)OC(=O)Nc2ccc(Cl)c(F)c23)[nH]1 (single isomer, unassigned) [Example 96] | 5080 | 3.5
O=C1Nc2ccc(Cl)c(F)c2[C@@]2(CCCN(C(=O)c3cnn([C@](CO)(CC4CC4)c4ccc(F)cc4)c3)C2)O1 [Example 34, (R)-6-Chloro-1′-(1-((R)-1-cyclopropyl-2-(4-fluorophenyl)-3-hydroxypropan-2-yl)-1H-pyrazole-4-carbonyl)-5-fluorospiro[benzo[d][1,3]oxazine-4,3′-piperidin]-2(1H)-one] | 270 | 13.1
COCC(c1ccccc1)n1cc(C(=O)N2CCC[C@@]3(C2)OC(=O)Nc2ccc(Cl)c(F)c23)cn1 (stereo partly drawn) [Example 14, (4R)-6-Chloro-5-fluoro-1′-(1-(2-methoxy-1-phenylethyl)-1H-pyrazole-4-carbonyl)spiro[benzo[d][1,3]oxazine-4,3′-piperidin]-2(1H)-one] | 1530 | 16.2
O=C1Nc2ccc(Cl)c(F)c2[C@@]2(CCCN(C(=O)c3nnc(C(CC(F)(F)F)c4ccccc4)[nH]3)C2)O1 (single isomer, unassigned) [Example 98] | 362 | 1.3
C[C@@H](O)[C@H](c1ccccc1)n1cc(C(=O)N2CCC[C@@]3(C2)OC(=O)Nc2ccc(Cl)c(F)c23)cn1 [Example 16, (R)-6-Chloro-5-fluoro-1′-(1-((1S,2R)-2-hydroxy-1-phenylpropyl)-1H-pyrazole-4-carbonyl)spiro[benzo[d][1,3]oxazine-4,3′-piperidin]-2(1H)-one] | 1450 | 40.3
O=C1Nc2ccc(Cl)c(F)c2[C@@]2(CCCN(C(=O)c3cnn([C@H](CC4CC4)c4ccccc4)c3)C2)O1 (single isomer, unassigned) [Example 2] | 206 | 3.2
O=C1Nc2ccc(Cl)c(F)c2[C@@]2(CCCN(C(=O)c3cnc(C(c4ccc(F)cc4)C(F)(F)F)[nH]3)C2)O1 (single isomer, unassigned) [Example 83] | 2700 | 21.3
COC1(CC(c2ccccc2)c2c[nH]c(C(=O)N3CCC[C@@]4(C3)OC(=O)Nc3ccc(Cl)c(F)c34)n2)CC1 (single isomer, unassigned) [Example 75, (R)-6-Chloro-5-fluoro-1′-(4-((R or S)-2-(1-methoxycyclopropyl)-1-phenylethyl)-1H-imidazole-2-carbonyl)spiro[benzo[d][1,3]oxazine-4,3′-piperidin]-2(1H)-one] | 322 | 5.7
O=C1Nc2ccc(Cl)c(F)c2[C@@]2(CC(C3CC3)CN(C(=O)c3cnn(Cc4ccccc4)c3)C2)O1 (stereo partly drawn) [Example 22, (4R)-1′-(1-Benzyl-1H-pyrazole-4-carbonyl)-6-chloro-5′-cyclopropyl-5-fluorospiro[benzo[d][1,3]oxazine-4,3′-piperidin]-2(1H)-one] | 1370 | 7.9
O=C1Nc2ccc(Cl)c(F)c2[C@@]2(CCCN(C(=O)c3nnc(C(Cc4ccccc4)c4ccccc4)[nH]3)C2)O1 (single isomer, unassigned) [Example 105] | 3600 | 17.3
CC[C@H](c1cc(C)c2nc[nH]c2c1)c1n[nH]c(C(=O)N2CCC[C@@]3(C2)OC(=O)Nc2ccc(Cl)c(F)c23)n1 [Example 110, (R)-6-Chloro-5-fluoro-1′-(3-((R)-1-(4-methyl-1H-benzo[d]imidazol-6-yl)propyl)-1H-1,2,4-triazole-5-carbonyl)spiro[benzo[d][1.3]oxazine-4,3′-piperidin]-2(1H)-one] | 1220 | 1
O=C1Nc2ccc(Cl)c(F)c2[C@@]2(CCCN(C(=O)c3nc(Cc4ccccc4)c[nH]3)C2)O1 [Example 65, (R)-1′-(4-Benzyl-1H-imidazole-2-carbonyl)-6-chloro-5-fluorospiro[benzo[d][1,3]oxazine-4,3′-piperidin]-2(1H)-one] | 1770 | 19.3
CCC(c1ccnc(C(F)(F)F)c1)n1cc(C(=O)N2CCC[C@@]3(C2)OC(=O)Nc2ccc(Cl)c(F)c23)cn1 (single isomer, unassigned) [Example 37] | 1450 | 2.6
CCC(c1c(C)noc1C)n1cc(C(=O)N2CCC[C@@]3(C2)OC(=O)Nc2ccc(Cl)c(F)c23)cn1 (single isomer, unassigned) [Example 43] | 4670 | 27.1
O=C1Nc2ccc(Cl)c(F)c2[C@@]2(CCCN(C(=O)c3cnc(C(c4ccc(F)cc4)C(F)(F)F)[nH]3)C2)O1 (single isomer, unassigned) [Example 82] | 7390 | 42.5
CC(C)(c1ccccc1)c1nnc(C(=O)N2CCC[C@@]3(C2)OC(=O)Nc2ccc(Cl)c(F)c23)[nH]1 [Example 93, (R)-6-Chloro-5-fluoro-1′-(5-(2-phenylpropan-2-yl)-4H-1,2,4-triazole-3-carbonyl)spiro[benzo[d][1,3]oxazine-4,3′-piperidin]-2(1H)-one] | 3160 | 29.9
CCC(c1ccc(F)cc1)n1cc(C(=O)N2CCC[C@@]3(C2)OC(=O)Nc2ccc(Cl)c(F)c23)cn1 (single isomer, unassigned) [Example 25] | 210 | 10.4
O=C1Nc2ccc(Cl)c(F)c2[C@@]2(CCCN(C(=O)c3nnc(C(c4ccccc4)C4CC4)[nH]3)C2)O1 (single isomer, unassigned) [Example 107] | 1910 | 11.2
CO[C@@H](C)[C@@H](c1ccccc1)n1cc(C(=O)N2CCC[C@@]3(C2)OC(=O)Nc2ccc(Cl)c(F)c23)cn1 [Example 11, (R)-6-Chloro-5-fluoro-1′-(1-((1R,2S)-2-methoxy-1-phenylpropyl)-1H-pyrazole-4-carbonyl)spiro[benzo[d][1,3]oxazine-4,3′-piepridine]-2(1H)-one] | 4330 | 20
O=C1Nc2ccc(Cl)c(F)c2[C@@]2(CCCN(C(=O)c3cnn(Cc4ccnc(C(F)(F)F)c4)c3)C2)O1 [Example 7, (R)-6-Chloro-5-fluoro-1′-(1-((2-(trifluoromethyl)pyridin-4-yl)methyl)-1H-pyrazole-4-carbonyl)spiro[benzo[d][1,3]oxazine-4,3′-piperidin]-2(1H)-one] | 881 | 37.5
